{
  "source": "patent US7109341B2",
  "about": "“Therapeutic amides” (Wayne State University, priority 2002, dated 2006)",
  "key": {"[1]": {"tested_on": "Pancreatic Ductal Adenocarcinoma 03", "assay": "Evaluation against early stage Pancreatic Ductal Adenocarcinoma 03 in female BDF1 mice (Table 4)", "assay_type": "in vivo, mouse", "details": "Cage 14; IV; 48 mg/kg/inj QD 3–9; total 336 mg/kg", "source_text": "The higher dose requirement for compound 14e may be a disadvantage over compound 11b (Cage 14)."}, "[2]": {"tested_on": "Mammary Adenocarcinoma 17/ADR", "assay": "Evaluation against early stage Mammary Adenocarcinoma 17/ADR, C3H/He females (Table 3)", "assay_type": "in vivo", "details": "for % Body Wt Loss at Nadir / % T/C mass / Day of Nadir / Drug Deaths / Growth Delay / Log Kill / Median Tumor Mass on Day 9 (Range) / Tumor Free day-21 / Activity Rating: PO"}, "[3]": {"tested_on": "Pancreatic Adenocarcinoma 03", "assay": "Evaluation against early stage Pancreatic Adenocarcinoma 03 in BDF1 male mice (Table 1)", "assay_type": "in vivo, mouse", "details": "PO, QD3–6, 9–11, BID 7–8"}, "[4]": {"details": "IV, short, dose-intense schedule BID-1–3, 162 mg/kg total dose"}, "[5]": {"details": "Cage 5, 145 mg/kg/inj QD-1–3 and 7–9, total 870 mg/kg"}, "[6]": {"details": "Cage 6, 90 mg/kg/inj QD-1–3 and 7–9, total 540 mg/kg"}, "[7]": {"details": "Cage 7, 55.8 mg/kg/inj QD-1–3 and 7–9, total 334.8 mg/kg"}, "[8]": {"details": "Cage 8, 34.6 mg/kg/inj QD-1–3, 145 mg/kg/inj QD-7–9, total 538.8 mg/kg"}},
  "note": "Values joined by “and” are separate entries in the source; they are usually repeats but may differ in a detail not shown here. Equal values may be shown once.",
  "data": [
    {"smiles": "CC(Oc1ccc(Oc2ccc3ccc(Cl)cc3n2)cc1)C(=O)O", "note": "(stereo not shown) [Compound 11b]", "values": [
      {"measurement": "% Body Wt Loss at Nadir", "setting": "[1]", "result": "−8.9", "unit": "%"},
      {"measurement": "% T/C mass", "setting": "[1]", "result": 0, "unit": "%"},
      {"measurement": "Activity Rating", "setting": "[1]", "result": "+++ (2.0–2.8)"},
      {"measurement": "Day of Nadir", "setting": "[1]", "result": 11, "unit": "days"},
      {"measurement": "Drug Deaths", "setting": "[1]", "result": "0/5"},
      {"measurement": "Growth Delay", "setting": "[1]", "result": 17.5, "unit": "days"},
      {"measurement": "Log Kill", "setting": "[1]", "result": 2.6},
      {"measurement": "Median Tumor Mass on Day 14 (Range)", "setting": "[1]", "result": 0},
      {"measurement": "Tumor Free day-37", "setting": "[1]", "result": "0/5"},
      {"measurement": "day of full body weight recovery", "setting": "[1]", "result": "~15", "unit": "days"}
    ]},
    {"smiles": "COc1c(Cl)ccc2ccc(Oc3ccc(OC(C)C(=O)O)cc3)nc12", "note": "(stereo not shown) [Compound 13a, reference compound]", "values": [
      {"measurement": "T/C", "setting": "[2]; [4]", "result": 7, "unit": "%"},
      {"measurement": "log kill", "setting": "[2]; [4]", "result": 1.5}
    ]},
    {"smiles": "CC(Oc1ccc(Oc2cnc3ccc(Cl)cc3n2)cc1)C(N)=O", "note": "(stereo not shown) [Compound 14a]", "values": [
      {"measurement": "Day of Wt. Loss Nadir", "setting": "[3]; Cage 5, total 1,320 mg/kg", "result": 8, "unit": "days"},
      {"measurement": "Drug Deaths (days of death)", "setting": "[3]; Cage 5, total 1,320 mg/kg", "result": "0/5"},
      {"measurement": "Log Kill", "setting": "[3]; Cage 5, total 1,320 mg/kg", "result": 1.9},
      {"measurement": "Mean Body Wt. Loss in g/mouse", "setting": "[3]; Cage 5, total 1,320 mg/kg", "result": "−0.8", "unit": "g/mouse"},
      {"measurement": "Median tumor burden in mg on day 14 (range)", "setting": "[3]; Cage 5, total 1,320 mg/kg", "result": 126, "unit": "mg"},
      {"measurement": "Percent Body Wt. Loss", "setting": "[3]; Cage 5, total 1,320 mg/kg", "result": "−3.6", "unit": "%"},
      {"measurement": "T-C", "setting": "[3]; Cage 5, total 1,320 mg/kg", "result": 12, "unit": "days"},
      {"measurement": "T/C %", "setting": "[3]; Cage 5, total 1,320 mg/kg", "result": 7.3, "unit": "%"},
      {"measurement": "Time to 1000 mg days (range)", "setting": "[3]; Cage 5, total 1,320 mg/kg", "result": 23, "unit": "days"},
      {"measurement": "Tumor Free on day 21", "setting": "[3]; Cage 5, total 1,320 mg/kg", "result": "0/5"},
      {"measurement": "toxicity observations", "setting": "[3]; Cage 5, total 1,320 mg/kg", "result": "Toxicity was not reached"},
      {"measurement": "Day of Wt. Loss Nadir", "setting": "[3]; Cage 6, total 660 mg/kg", "result": 5, "unit": "days"},
      {"measurement": "Drug Deaths (days of death)", "setting": "[3]; Cage 6, total 660 mg/kg", "result": "0/5"},
      {"measurement": "Log Kill", "setting": "[3]; Cage 6, total 660 mg/kg", "result": 0.7},
      {"measurement": "Mean Body Wt. Loss in g/mouse", "setting": "[3]; Cage 6, total 660 mg/kg", "result": "−0.4", "unit": "g/mouse"},
      {"measurement": "Median tumor burden in mg on day 14 (range)", "setting": "[3]; Cage 6, total 660 mg/kg", "result": 695, "unit": "mg"},
      {"measurement": "Percent Body Wt. Loss", "setting": "[3]; Cage 6, total 660 mg/kg", "result": "−1.8", "unit": "%"},
      {"measurement": "T-C", "setting": "[3]; Cage 6, total 660 mg/kg", "result": 4.5, "unit": "days"},
      {"measurement": "T/C %", "setting": "[3]; Cage 6, total 660 mg/kg", "result": 40, "unit": "%"},
      {"measurement": "Time to 1000 mg days (range)", "setting": "[3]; Cage 6, total 660 mg/kg", "result": 15.5, "unit": "days"},
      {"measurement": "Tumor Free on day 21", "setting": "[3]; Cage 6, total 660 mg/kg", "result": "0/5"},
      {"measurement": "Day of Wt. Loss Nadir", "setting": "[3]; Cage 7, total 330 mg/kg", "result": 6, "unit": "days"},
      {"measurement": "Drug Deaths (days of death)", "setting": "[3]; Cage 7, total 330 mg/kg", "result": "no lethality and 0/5"},
      {"measurement": "Log Kill", "setting": "[3]; Cage 7, total 330 mg/kg", "result": 0.3},
      {"measurement": "Median tumor burden in mg on day 14 (range)", "setting": "[3]; Cage 7, total 330 mg/kg", "result": 1273, "unit": "mg"},
      {"measurement": "T-C", "setting": "[3]; Cage 7, total 330 mg/kg", "result": 2, "unit": "days"},
      {"measurement": "T/C %", "setting": "[3]; Cage 7, total 330 mg/kg", "result": 74, "unit": "%"},
      {"measurement": "Time to 1000 mg days (range)", "setting": "[3]; Cage 7, total 330 mg/kg", "result": 13, "unit": "days"},
      {"measurement": "Tumor Free on day 21", "setting": "[3]; Cage 7, total 330 mg/kg", "result": "0/5"}
    ]},
    {"smiles": "COc1c(Cl)ccc2ncc(Oc3ccc(OC(C)C(=O)N(C)C)cc3)nc12", "note": "(stereo not shown) [Compound 14c]", "values": [
      {"measurement": "% Body Wt Loss at Nadir", "setting": "[2]; [5]", "result": "−5.8", "unit": "%"},
      {"measurement": "% T/C mass", "setting": "[2]; [5]", "result": 20, "unit": "%"},
      {"measurement": "Day of Nadir", "setting": "[2]; [5]", "result": 9, "unit": "days"},
      {"measurement": "Drug Deaths", "setting": "[2]; [5]", "result": "0/5"},
      {"measurement": "Growth Delay", "setting": "[2]; [5]", "result": 5.5, "unit": "days"},
      {"measurement": "Log Kill", "setting": "[2]; [5]", "result": 1.5},
      {"measurement": "Median Tumor Mass on Day 9 (Range)", "setting": "[2]; [5]", "result": 243},
      {"measurement": "Tumor Free day-21", "setting": "[2]; [5]", "result": "0/5"},
      {"measurement": "% Body Wt Loss at Nadir", "setting": "[2]; [6]", "result": "+1.4%"},
      {"measurement": "% T/C mass", "setting": "[2]; [6]", "result": 31, "unit": "%"},
      {"measurement": "Activity Rating", "setting": "[2]; [6]", "result": "++ (1.3–1.9)"},
      {"measurement": "Day of Nadir", "setting": "[2]; [6]", "result": 9, "unit": "days"},
      {"measurement": "Drug Deaths", "setting": "[2]; [6]", "result": "0/5"},
      {"measurement": "Growth Delay", "setting": "[2]; [6]", "result": 5.0, "unit": "days"},
      {"measurement": "Log Kill", "setting": "[2]; [6]", "result": 1.4},
      {"measurement": "Median Tumor Mass on Day 9 (Range)", "setting": "[2]; [6]", "result": 369},
      {"measurement": "Tumor Free day-21", "setting": "[2]; [6]", "result": "0/5"},
      {"measurement": "% Body Wt Loss at Nadir", "setting": "[2]; [7]", "result": "+0.0%"},
      {"measurement": "% T/C mass", "setting": "[2]; [7]", "result": 31, "unit": "%"},
      {"measurement": "Activity Rating", "setting": "[2]; [7]", "result": "+ (0.7–1.2)"},
      {"measurement": "Day of Nadir", "setting": "[2]; [7]", "result": 9, "unit": "days"},
      {"measurement": "Drug Deaths", "setting": "[2]; [7]", "result": "0/5"},
      {"measurement": "Growth Delay", "setting": "[2]; [7]", "result": 3.5, "unit": "days"},
      {"measurement": "Log Kill", "setting": "[2]; [7]", "result": 1.0},
      {"measurement": "Median Tumor Mass on Day 9 (Range)", "setting": "[2]; [7]", "result": 368},
      {"measurement": "Tumor Free day-21", "setting": "[2]; [7]", "result": "0/5"},
      {"measurement": "% Body Wt Loss at Nadir", "setting": "[2]; [8]", "result": "−1.4", "unit": "%"},
      {"measurement": "% T/C mass", "setting": "[2]; [8]", "result": 55, "unit": "%"},
      {"measurement": "Activity Rating", "setting": "[2]; [8]", "result": "+ (0.7–1.2)"},
      {"measurement": "Day of Nadir", "setting": "[2]; [8]", "result": 11, "unit": "days"},
      {"measurement": "Drug Deaths", "setting": "[2]; [8]", "result": "0/5"},
      {"measurement": "Growth Delay", "setting": "[2]; [8]", "result": 3.3, "unit": "days"},
      {"measurement": "Log Kill", "setting": "[2]; [8]", "result": 0.9},
      {"measurement": "Median Tumor Mass on Day 9 (Range)", "setting": "[2]; [8]", "result": 660},
      {"measurement": "Tumor Free day-21", "setting": "[2]; [8]", "result": "0/5"}
    ]}
  ]
}
